Laboratory results from article PMC11882969 (Nature Communications, 2025).
Where “and” joins values, the source holds several entries; their conditions need not be identical. Identical values can stand only once. Like-named read-outs stand apart in the source and are kept apart here.

Tests used:
CB1R = test: Bimane fluorescence of labeled CB1R; format: biochemical, human; settings: 10 μM ligand; apo 459 nm
Protocol: A minimal cysteine version of CB1R was generated[85] where all the cysteine residues (except C256 and C264) were mutated to alanine. […] Excess label was removed using size exclusion chromatography on a Superdex 200 10/300 Increase column in 20 mM HEPES pH 7.5, 100 mM NaCl and 0.01% MNG/0.001% CHS. Bimane-labeled CB1R at […] was incubated with ligands (10 μM) for one hour at room temperature. Fluorescence data was collected at room temperature in a 150 μL cuvette with a FluorEssence v3.8 software on a Fluorolog instrument (Horiba) in photon-counting mode. Bimane fluorescence was measured by excitation at 370 nm with excitation and emission bandwidth passes of 4 nm. The emission spectra were recorded from 410 to 510 nm with 1 nm increment and 0.1 s integration time.

[1] = biological target: T1, CB1R with G protein (Gi1-3, Go) (Homo sapiens, UniProt P21554); test: GTP turnover assay (GTPase-Glo); format: biochemical; settings: replicates, sheet FigS3c
T1 construct: a N-terminal FLAG tag and C-terminal histidine tag was added to human full-length CB1; FLAG (N); histidine tag (C); made in house; host or cells: CB1R: Spodoptera frugiperda Sf9; G proteins: Trichoplusia ni Hi5
T1 sequence (P21554 whole entry): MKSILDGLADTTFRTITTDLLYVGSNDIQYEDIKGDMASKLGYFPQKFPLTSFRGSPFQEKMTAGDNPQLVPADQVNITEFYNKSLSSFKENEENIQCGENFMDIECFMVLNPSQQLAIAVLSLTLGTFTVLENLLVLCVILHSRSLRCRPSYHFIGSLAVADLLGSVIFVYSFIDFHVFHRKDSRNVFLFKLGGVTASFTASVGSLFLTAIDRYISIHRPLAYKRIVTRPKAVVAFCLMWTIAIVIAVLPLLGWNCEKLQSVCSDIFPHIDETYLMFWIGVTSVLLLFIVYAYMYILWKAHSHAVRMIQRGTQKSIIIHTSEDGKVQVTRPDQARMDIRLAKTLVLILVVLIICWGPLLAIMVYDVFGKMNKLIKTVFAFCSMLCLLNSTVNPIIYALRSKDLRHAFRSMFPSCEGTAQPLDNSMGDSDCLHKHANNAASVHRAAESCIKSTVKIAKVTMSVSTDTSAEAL
Protocol: Analysis of GTP turnover was performed by using a modified protocol of the GTPase-Glo^TM assay (Promega) described previously. Ligand-bound (10 μM ligand incubated for one hour at room temperature) or apo CB1R (1 μM) was mixed with G protein (1 μM) in 20 mM HEPES, pH 7.5, 50 mM NaCl, 0.01% L-MNG/0.001% CHS, 100 μM TCEP, 10 μM GDP and 10 μM GTP and incubated at room temperature. GTPase-Glo-reagent was added to the sample after incubation for 60 min (Gi1-3) and 20 min for (Go). Luminescence was measured after the addition of detection reagent and incubation for 10 min at room temperature using a SpectraMax Paradigm plate reader.

[2] = pH 7.4, kinetic, 2% DMSO, 25 °C
in vitro [3] = settings: mouse, microsomes, pH 7.4
[4] = for Stability time course, Mean (FS10f): relative to 100 at 0 min
P-gp (human MDR1) = test: in vitro; settings: dog, MDCK-MDR1, pH 7.4
[5] = mouse plasma, 1.0 µM
in vitro [6] = settings: mouse, pH 7.4

Structure (SMILES): COC(=O)[C@@H](NC(=O)c1nn(Cc2ccc(F)cc2)c2ccccc12)C(C)(C)C [MDMB-Fub, MDMB-Fubinaca, reference compound]
- bimane spectrum λmax (CB1R): 465 nm
- GTP turnover, normalised (FUB about 100) ([1]; Gi2): 98.933 and 99.3172 and 100.642 and 101.735 and 100.511 and 98.862
- GTP turnover, normalised (FUB about 100) ([1]; Gi3): 98.4729 and 99.2586 and 100.386 and 101.71 and 99.9413 and 100.231
- GTP turnover, normalised (FUB about 100) ([1]; Goa): 94.5882 and 101.149 and 98.4211 and 105.861 and 100.202 and 99.77
- GTP turnover, normalised (FUB about 100) ([1]; first block, G protein not printed (Gi2, Gi3, Goa follow)): 100.725 and 100.983 and 100.099 and 103.208 and 97.7953 and 97.1894

Structure (SMILES): Cc1nccn1CC1CCc2c(c3ccccc3n2C)C1=O (stereo not shown) [Ondansetron]
- PBS solubility, Mean [2]: 120 µM

Structure (SMILES): CC(C)NCC(O)COc1cccc2ccccc12 (stereo not shown) [Propranolol]
- remaining at 40 min, 2 µM (in vitro [3]): 106%
- Stability time course, Mean (FS10f) ([4]; Time 0 min): 100
- Stability time course, Mean (FS10f) ([4]; Time 7 min): 46.9307
- Stability time course, Mean (FS10f) ([4]; Time 15 min): 32.0792
- Stability time course, Mean (FS10f) ([4]; Time 25 min): 24.5545
- Stability time course, Mean (FS10f) ([4]; Time 40 min): 16.6997
- Mean % Remaining ([4]; mouse microsomes, 15 min): 32%

Structure (SMILES): C[C@H]1O[C@@H](O[C@H]2[C@@H](O)C[C@H](O[C@H]3[C@@H](O)C[C@H](O[C@H]4CC[C@@]5(C)[C@H](CC[C@@H]6[C@@H]5C[C@@H](O)[C@]5(C)[C@@H](C7=CC(=O)OC7)CC[C@]65O)C4)O[C@@H]3C)O[C@@H]2C)C[C@H](O)[C@@H]1O [Digoxin]
- efflux ratio at 90 min, 10 μM (P-gp (human MDR1)): 7.3

Structure (SMILES): COc1ccc(CCN(C)CCCC(C#N)(c2ccc(OC)c(OC)c2)C(C)C)cc1OC (stereo not shown) [Verapamil, reference compound]
- Mean % of bound compound [5]: 88%
- recovery at 5 h, 1 μM (in vitro [6]): 91%
